# Results from publication PMC7385131, “Mechanisms of activation and desensitization of full-length glycine receptor in lipid nanodiscs” (Nature Communications, 2020).
# T1: zebrafish GlyRα1 (full-length glycine receptor α1) (Danio rerio, UniProt O93430)
# T1 construct: gene glra1; homopentamer in asolectin/MSP1E3D1 nanodiscs
# T1 sequence (O93430 1-444): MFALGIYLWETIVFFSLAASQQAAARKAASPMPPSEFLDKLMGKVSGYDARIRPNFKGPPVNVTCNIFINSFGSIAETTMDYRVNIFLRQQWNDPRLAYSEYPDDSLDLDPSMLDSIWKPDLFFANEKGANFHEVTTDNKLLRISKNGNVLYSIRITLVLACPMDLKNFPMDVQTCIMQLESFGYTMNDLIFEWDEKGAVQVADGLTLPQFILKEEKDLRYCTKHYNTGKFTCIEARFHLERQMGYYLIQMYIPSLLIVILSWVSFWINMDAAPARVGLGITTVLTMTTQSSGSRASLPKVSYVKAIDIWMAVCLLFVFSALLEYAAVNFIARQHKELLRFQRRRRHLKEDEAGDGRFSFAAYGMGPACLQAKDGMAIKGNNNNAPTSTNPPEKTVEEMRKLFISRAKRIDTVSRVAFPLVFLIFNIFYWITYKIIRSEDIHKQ
# B1: full-length zebrafish glycine receptor α1 (GlyRα1) (receptor, UniProt O93430 25-444, looked up)
# chain: ARKAASPMPPSEFLDKLMGKVSGYDARIRPNFKGPPVNVTCNIFINSFGSIAETTMDYRVNIFLRQQWNDPRLAYSEYPDDSLDLDPSMLDSIWKPDLFFANEKGANFHEVTTDNKLLRISKNGNVLYSIRITLVLACPMDLKNFPMDVQTCIMQLESFGYTMNDLIFEWDEKGAVQVADGLTLPQFILKEEKDLRYCTKHYNTGKFTCIEARFHLERQMGYYLIQMYIPSLLIVILSWVSFWINMDAAPARVGLGITTVLTMTTQSSGSRASLPKVSYVKAIDIWMAVCLLFVFSALLEYAAVNFIARQHKELLRFQRRRRHLKEDEAGDGRFSFAAYGMGPACLQAKDGMAIKGNNNNAPTSTNPPEKTVEEMRKLFISRAKRIDTVSRVAFPLVFLIFNIFYWITYKIIRSEDIHKQ
# modifications: N-glycan at Asn62
# notes: Glycine receptor subunit alpha-1, zebrafish, full-length gene, codon-optimized; residues numbered as in UniProt O93430; Homopentamer; the model begins at Pro31; No thrombin cleavage is told; also called full-length glycine α1 receptor; GlyR–Apo; source: Sf9 cells (baculovirus, pFastBac1), purified (TALON, Superose 6), reconstituted into asolectin nanodiscs with MSP1E3D1
# How the values were obtained:
# [1] = molecular target: T1, zebrafish GlyRα1 (full-length glycine receptor α1); test: cryo-EM structure in lipid nanodiscs ([…] Å) with glycine; TEVC block in oocytes; type: binding
# [2] = molecular target: T1, zebrafish GlyRα1 (full-length glycine receptor α1); test: cryo-EM structure in lipid nanodiscs ([…] Å); TEVC in oocytes; type: binding
# [3] = molecular target: the molecule itself; test: cryo-EM structure; GlyR in asolectin nanodiscs (MSP1E3D1), ~0.1 mg/ml, buffer A (200 mM NaCl, 20 mM HEPES pH 8.0); no ligand, 5 mM glycine, 5 mM glycine + 3 mM picrotoxin, 1 mM glycine + 0.5 uM ivermectin, or 0.1 mM glycine + 30 uM ivermectin; C5 symmetry imposed
molecule,measurement,setting,value
"C=C(C)[C@@H]1[C@H]2OC(=O)[C@@H]1[C@]1(O)C[C@H]3OC34C(=O)O[C@H]2[C@@]41C.CC(C)(O)[C@@H]1[C@H]2OC(=O)[C@@H]1[C@]1(O)C[C@H]3OC34C(=O)O[C@H]2[C@@]41C (stereo partly drawn) [PTX, picrotoxin]",cryo-EM structure in lipid nanodiscs (3.51 Å) with glycine; TEVC block in oocyte,[1],an additional density was seen in the pore at the mid-level of M2 nestled between Gly2′ and Leu9′
"NCC(=O)O [Gly, glycine]",cryo-EM structure in lipid nanodiscs (3.47 Å); TEVC in oocytes,[2],3D reconstructions reveal an additional small density in the canonical neurotransmitter-binding pocket wedged at the subunit interface in the ECD
B1,stoichiometry N,[3],5
